Patent publication US20170360029A1, “Chemical Agent For Controlling Soil Nematode Which Comprises Macrolide-Type Compound” (Maruwa Biochemical Co., Ltd., priority 2012, published 2017)
Values after ≈ are worked out from the molar mass of the structure shown.

Assays:
[1] = test system: sweet potato root-knot nematodes; test: Nematode Control Test Example 1: emulsions mixed with infested soil, cherry tomato pot test; type: in vivo; settings: for Aerial part weight / Root-knot parasitism level: cherry tomato, after six weeks, sprayed liquid 10 ppm, concentration in soil 0.3 ppm; for Aerial part weight: mixed with soil; for nematode control effect (in words): concentration of active ingredient in the soil of 0.3 ppm; for Root-knot parasitism level: scale 0-4, mean
Procedure: Each of abamectin 7.5% emulsion from NO. […] One liter of Pleistocene volcanic ash soil in which sweet potato root-knot nematodes had proliferated (the mean of initial sweet potato root-knot nematode density in the fourth-repeated cultivations: 235 nematodes/20 g of soil) was placed in a polyethylene bag and 30 ml of 10 ppm liquid of each chemical agent was mixed therewith while sprayed. The soil mixed with the chemical agent was filled in a pot with a surface area of 162 cm^2. A group where 1 L of soil was mixed and treated with 200 mg of a commercially available organophosphorus-based nematocide fosthiazate 1.5% granule (Ishihara Nemathorin Ace granule, a product from Ishihara Sangyo Kaisha, Ltd.) as a control chemical agent and a group with no treatment were set up. After the treatment with the chemical agent, three stocks of cherry tomato (variety Regina nursery plant with three true leaves, a product from Takii seed Co., Ltcd.) were planted. The test was repeated twice and cultivation management was conducted in a greenhouse. After six weeks, the weight of aerial parts and root-knot parasitism level were investigated.
(§1) In the test below, evaluation criteria for the root-knot parasitism level are as follows:
(§2) The evaluation was conducted using additional intermediate levels of 0.5 between each parasitism levels below at the investigation.
(§3) Parasitism level 0: No root-knots are noted at all.
(§4) Parasitism level 1: The formation of root-knots is noted in not more than 25% of the root.
(§5) Parasitism level 2: The formation of root-knots is noted in more than 25% and not more than 50% of the root.
(§6) Parasitism level 3: The formation of root-knots is noted in more than 50% and not more than 75% of the root.
(§7) Parasitism level 4: The formation of root-knots is noted in more than 75% of the root.

[2] = Non Patent Literature 4; cited from earlier work
[3] = test system: sweet potato root-knot nematodes; test: Nematode Control Test Example 2: abamectin and moxidectin emulsions, pot test; type: in vivo; settings: for Aerial part weight: cherry tomato; for Aerial part weight / Root-knot parasitism level: after eight weeks; for Root-knot parasitism level: scale 0-4, mean
Procedure: as §1, §2, §3, §4, §5, §6, §7
Abamectin 7.5% emulsion from NO. 3 in Formulation Example 1 and moxidectin 7.5% emulsion from NO. 38 in Formulation Example 3 were prepared by diluting with tap water (water hardness about 70) at a concentration of active ingredient of 5 ppm, 10 ppm, and 20 ppm. One liter of Pleistocene volcanic ash soil in which sweet potato root-knot nematodes had proliferated (initial sweet potato root-knot nematode density: the mean in fourth-repeated cultivations 260 nematodes/20 g of soil) was placed in a polyethylene bag and 30 ml of each of the above was mixed therewith while sprayed. The soil mixed with the chemical agent was filled in a pot with a surface area of 162 cm^2. A group where 1 L of soil was mixed and treated with 200 mg of a commercially available organophosphorus-based nematocide fosthiazate 1.5% granule as a control chemical agent and a group with no treatment were set up. After the treatment with the chemical agent, four stocks of cherry tomato (variety Regina nursery plant with four true leaves) were planted. The test was repeated twice and cultivation management was conducted in a greenhouse. After eight weeks, the weight of aerial parts and root-knot parasitism level were investigated.

[4] = cited from earlier work
[5] = sprayed liquid 5 ppm, concentration in soil 0.15 ppm
[6] = sprayed liquid 10 ppm, concentration in soil 0.3 ppm
[7] = sprayed liquid 20 ppm, concentration in soil 0.6 ppm

Molecule	Aerial part weight [1]	nematode control effect (in words) [1]	Root-knot parasitism level [1]	further results
emamectin	3.3 g/stock	apparently exhibited fewer effects	3.92	–
CO[C@H]1C[C@H](O[C@@H]2/C(C)=C/C[C@@H]3C[C@@H](C[C@]4(CC[C@H](C)[C@@H](C5CCCCC5)O4)O3)OC(=O)[C@@H]3C=C(C)/C(=N/O)[C@H]4OC/C(=C\C=C\[C@@H]2C)[C@]43O)O[C@@H](C)[C@@H]1O [SEL, selamectin]	2.6 g/stock	apparently exhibited fewer effects	4.00	–
abamectin	3.7 g/stock	apparent nematode control effect	0.75	breakdown by soil microorganisms [2]: quickly broken down; soil adsorption [2]: very high; Aerial part weight [3, 5]: 55 g/stock; Aerial part weight [3, 6]: 49 g/stock; Aerial part weight [3, 7]: 45 g/stock; capability of controlling nematodes (in words) ([3]; comparison abamectin vs moxidectin, 0.15-0.6 ppm in soil): slightly better effect than moxidectin; Root-knot parasitism level [3, 5]: 2.38; Root-knot parasitism level [3, 6]: 1.17; Root-knot parasitism level [3, 7]: 1.00
CO[C@H]1C[C@H](O[C@H]2[C@H](C)O[C@@H](O[C@@H]3/C(C)=C/C[C@@H]4C[C@@H](C[C@]5(C=C[C@H](C)[C@@H](C6CCCCC6)O5)O4)OC(=O)[C@@H]4C=C(C)[C@@H](O)[C@H]5OC/C(=C\C=C\[C@@H]3C)[C@]54O)C[C@@H]2OC)O[C@@H](C)[C@@H]1O [DOR, doramectin]	3.8 g/stock	apparent nematode control effect	0.58	–
CC1=C[C@H]2C(=O)O[C@H]3C[C@@H](C/C=C(\C)C[C@@H](C)/C=C/C=C4\CO[C@H]([C@@H]1O)[C@@]42O)O[C@]1(C3)C[C@H](O)[C@H](C)[C@@H](/C(C)=C/C(C)C)O1 [NEM, nemadectin]	3.0 g/stock	–	4.00	–
CNC(=O)O/N=C(\SC)C(=O)N(C)C [oxamyl]	–	–	–	solubility to water [4]: 280 mg/mL (≈ 1280 mM)
CO/N=C1\C[C@]2(C[C@@H]3C[C@@H](C/C=C(\C)C[C@@H](C)/C=C/C=C4\CO[C@@H]5[C@H](O)C(C)=C[C@@H](C(=O)O3)[C@]45O)O2)O[C@H](/C(C)=C/C(C)C)[C@H]1C [MOX, moxidectin]	4.1 g/stock	–	1.33	Aerial part weight [3, 5]: 44 g/stock; Aerial part weight [3, 6]: 54 g/stock; Aerial part weight [3, 7]: 42 g/stock; Root-knot parasitism level [3, 5]: 2.81; Root-knot parasitism level [3, 6]: 1.75; Root-knot parasitism level [3, 7]: 1.38
lepimectin	3.1 g/stock	–	4.00	–
milbemectin	2.5 g/stock	–	4.00	solubility to water [4]: 0.00088 mg/mL
ivermectin	3.7 g/stock	apparent nematode control effect	0.83	–
